From PMC8372979 (Journal of medicinal chemistry, 2020)

Legend:
[1] = Pharmacokinetics in female NMRI mice; assay type: in vivo, mouse
CYP3A4 = CYP3A4 induction; assay type: in vitro ADME; conditions: in words
Caco-2 cells = assay: Caco-2 permeability; assay type: in vitro ADME
[2] = tested on: Bloodstream Trypanosoma brucei brucei Lister 427 (STIB 795); assay: Growth inhibition assay for T. brucei brucei; assay type: cell-based; conditions: pEC50=−logEC50; 72 h, resazurin

| Compound | Cmax ([1]; female, NMRI, mouse, in vivo, ip, 10 mg/kg, Mean Cmax ± SD, non-infected female NMRI mice, 10 mg/kg ip, without ABT-pretreatment, blood) [ng/mL] | Mean tmax ([1]; infected female NMRI mice, 30 mg/kg ip + ABT, day 1, blood) [min] | CYP3A4 Liability (induction) (CYP3A4) | A-B Permeability Ranking (Caco-2 cells; Caco-2) | Caco-2 efflux (Caco-2 cells; in words) | Caco-2 permeability (Caco-2 cells; in words) | T. brucei pEC50 [2] |
| --- | --- | --- | --- | --- | --- | --- | --- |
| Cn1nccc1Nc1nc(NCC(F)(F)F)c2nc[nH]c2n1 [Compound 4aa, N^2-(1-methyl-1H-pyrazol-5-yl)-N^6-(2,2,2-trifluoroethyl)-9H-purine-2,6-diamine] | 3670 ± 922 | 30 to 120 | does not have CYP3A4 induction liability | Higher | rapidly effluxed | Permeable |  |
| N^6-(tert-butyl)-N^2-(thiophen-3-yl)-9H-purine-2,6-diamine [Compound 5r] |  |  |  |  |  |  | 7.1 |
